Measurements taken from patent US9492552B2, “Injectable aqueous pharmaceutical compositions comprising a cyclodextrin, a hydrophobic drug, a co-solvent, and a preservative” (JUROX PTY LTD, priority 2011, dated 2016).

Test: Precipitation of alfaxalone from alfaxalone/2-hydroxypropyl-β-cyclodextrin complex solution on adding preservative without co-solvent
Assay type: physicochemical
Conditions: upwards to 1% w/v (typical content); no co-solvent

**Q.** Which “benzyl alcohol content at which significant precipitation occurs (titration)” value does the source give for `OCc1ccccc1` [benzyl alcohol] here?
**A.** ≥ 0.2 % w/v
